Test results taken from paper PMC12772150, “PIP2 corrects an endothelial Piezo1 channelopathy” (Proceedings of the National Academy of Sciences of the …, 2025).
pIC50: −log10 of the molar value.

Experiments:
Piezo1 [1] = biological target: T1, Piezo1 (Mus musculus, UniProt E2JF22); assay: single-channel patch clamp (cell-attached concentration-response with Yoda1; outside-out patches with PIP2 in pipette); format: cell-based
T1 construct: native channel in freshly isolated brain capillary endothelial cells
T1 sequence (E2JF22 whole entry): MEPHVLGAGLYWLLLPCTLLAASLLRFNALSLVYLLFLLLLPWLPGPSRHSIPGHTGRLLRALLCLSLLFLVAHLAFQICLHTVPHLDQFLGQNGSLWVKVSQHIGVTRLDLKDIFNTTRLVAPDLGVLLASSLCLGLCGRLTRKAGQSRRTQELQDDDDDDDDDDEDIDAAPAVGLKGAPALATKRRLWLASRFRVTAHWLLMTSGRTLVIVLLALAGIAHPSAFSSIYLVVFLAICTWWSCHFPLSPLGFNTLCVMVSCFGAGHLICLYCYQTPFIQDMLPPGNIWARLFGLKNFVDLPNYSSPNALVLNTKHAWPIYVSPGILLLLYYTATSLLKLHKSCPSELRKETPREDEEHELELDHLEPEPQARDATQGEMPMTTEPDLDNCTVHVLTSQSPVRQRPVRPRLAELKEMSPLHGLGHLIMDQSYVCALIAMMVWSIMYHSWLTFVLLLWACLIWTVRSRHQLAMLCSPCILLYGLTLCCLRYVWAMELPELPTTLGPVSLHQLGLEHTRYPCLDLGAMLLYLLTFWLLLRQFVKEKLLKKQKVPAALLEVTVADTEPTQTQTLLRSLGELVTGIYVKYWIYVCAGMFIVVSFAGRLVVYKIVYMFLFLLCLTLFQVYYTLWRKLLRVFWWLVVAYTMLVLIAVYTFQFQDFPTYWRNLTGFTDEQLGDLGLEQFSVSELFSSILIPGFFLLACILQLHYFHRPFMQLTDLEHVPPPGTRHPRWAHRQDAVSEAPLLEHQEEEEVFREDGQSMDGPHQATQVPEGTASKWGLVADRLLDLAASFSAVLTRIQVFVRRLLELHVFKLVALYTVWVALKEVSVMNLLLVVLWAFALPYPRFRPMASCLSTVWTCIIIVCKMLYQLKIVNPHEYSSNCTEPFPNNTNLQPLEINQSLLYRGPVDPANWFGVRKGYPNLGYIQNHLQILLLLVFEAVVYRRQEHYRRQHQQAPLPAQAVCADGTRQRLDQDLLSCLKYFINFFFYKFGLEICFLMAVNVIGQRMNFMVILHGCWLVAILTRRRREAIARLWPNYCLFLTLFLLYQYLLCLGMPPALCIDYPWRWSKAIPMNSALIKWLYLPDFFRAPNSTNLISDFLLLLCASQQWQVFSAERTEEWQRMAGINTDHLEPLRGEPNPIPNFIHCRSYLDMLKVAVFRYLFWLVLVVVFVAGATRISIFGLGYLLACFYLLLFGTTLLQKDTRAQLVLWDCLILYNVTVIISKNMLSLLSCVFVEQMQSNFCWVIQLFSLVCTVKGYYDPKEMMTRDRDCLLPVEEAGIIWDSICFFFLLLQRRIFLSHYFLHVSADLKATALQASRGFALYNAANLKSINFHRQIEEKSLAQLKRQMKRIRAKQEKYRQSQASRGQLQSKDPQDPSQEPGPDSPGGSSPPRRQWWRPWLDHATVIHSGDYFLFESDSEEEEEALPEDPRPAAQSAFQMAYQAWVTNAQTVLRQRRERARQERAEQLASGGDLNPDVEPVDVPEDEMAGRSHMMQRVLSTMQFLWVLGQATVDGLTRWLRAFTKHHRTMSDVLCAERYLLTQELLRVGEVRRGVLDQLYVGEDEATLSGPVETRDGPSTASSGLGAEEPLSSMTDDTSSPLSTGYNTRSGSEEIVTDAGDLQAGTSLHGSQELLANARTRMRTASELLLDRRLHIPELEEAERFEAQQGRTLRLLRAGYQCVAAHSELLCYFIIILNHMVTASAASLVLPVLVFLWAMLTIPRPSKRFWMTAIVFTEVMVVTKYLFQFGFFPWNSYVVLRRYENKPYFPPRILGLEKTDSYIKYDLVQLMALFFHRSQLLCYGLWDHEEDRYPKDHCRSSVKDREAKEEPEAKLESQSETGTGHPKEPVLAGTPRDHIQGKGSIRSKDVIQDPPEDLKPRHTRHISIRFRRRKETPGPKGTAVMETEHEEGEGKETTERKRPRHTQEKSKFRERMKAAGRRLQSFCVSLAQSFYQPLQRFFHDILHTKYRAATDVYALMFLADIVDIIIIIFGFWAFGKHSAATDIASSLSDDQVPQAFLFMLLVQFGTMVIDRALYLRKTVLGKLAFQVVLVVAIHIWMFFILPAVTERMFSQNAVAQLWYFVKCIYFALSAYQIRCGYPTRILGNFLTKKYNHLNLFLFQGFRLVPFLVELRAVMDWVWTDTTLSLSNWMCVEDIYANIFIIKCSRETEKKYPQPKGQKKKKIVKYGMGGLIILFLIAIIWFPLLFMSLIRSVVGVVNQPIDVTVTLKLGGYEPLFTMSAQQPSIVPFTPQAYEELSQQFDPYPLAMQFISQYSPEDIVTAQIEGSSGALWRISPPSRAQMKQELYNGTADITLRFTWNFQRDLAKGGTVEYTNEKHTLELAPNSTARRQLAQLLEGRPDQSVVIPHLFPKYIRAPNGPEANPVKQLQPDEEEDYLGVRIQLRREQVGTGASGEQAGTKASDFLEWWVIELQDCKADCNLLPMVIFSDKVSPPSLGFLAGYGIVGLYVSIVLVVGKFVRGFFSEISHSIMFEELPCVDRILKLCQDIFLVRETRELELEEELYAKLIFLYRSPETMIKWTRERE

Piezo1 [2] = biological target: T2, Piezo1 (Mus musculus, UniProt E2JF22, R2482H); assay: cell-attached single-channel patch clamp, […] PIP2, no Yoda1 ([…] inhibition); format: cell-based
T2 construct: mutant channel in capillary endothelial cells of Piezo1EC-Mutant mice
T2 sequence (E2JF22 whole entry R2482H): as the sequence (E2JF22 whole entry) above, with R2482H counted along it

pIC50 (Piezo1 [1]): ~6.52 | inhibition at 10 µM (Piezo1 [2]): 50%
SMILES: CCCCCCCCCCCCCCCC(=O)OC[C@H](COP(=O)(O)O[C@@H]1[C@H](O)[C@H](O)[C@@H](OP(=O)(O)O)[C@H](OP(=O)(O)O)[C@H]1O)OC(=O)CCCCCCCCCCCCCCC [diC16-PIP2]
